Assay [1] relates to Puccinia recondita f. Sp. Tritici. Nature of the assay: Fungicidal activity against Puccinia recondita f. sp. tritici / wheat / leaf disc preventative (brown rust). It is filed as in vivo. Particulars: foliar, 200 ppm in the applied formulation, wheat leaf segments, preventative, compared to untreated control leaf disks, read-out: disease control. The procedure: Leaf disks or leaf segments of various plant species are cut from plants grown in a greenhouse. The cut leaf disks or segments are placed in multiwell plates (24-well format) onto water agar. The leaf disks are sprayed with a test solution before (preventative) or after (curative) inoculation. Compounds to be tested are prepared as DMSO solutions (max. 10 mg/ml) which are diluted to the appropriate concentration with 0.025% Tween20 just before spraying. The inoculated leaf disks or segments are incubated under defined conditions (temperature, relative humidity, light, etc.) according to the respective test system. A single evaluation of disease level is carried out 3 to 14 days after inoculation, depending on the pathosystem. Percent disease control relative to the untreated check leaf disks or segments is then calculated.
Fungicidal Activity Against Puccinia recondita f. Sp. Tritici/Wheat/Leaf Disc Preventative (Brown Rust)
Wheat leaf segments cv. Kanzler were placed on agar in multiwell plates (24-well format) and sprayed with the formulated test compound diluted in water. The leaf disks were inoculated with a spore suspension of the fungus 1 day after application. The inoculated leaf segments were incubated at 19° C. and 75% relative humidity (rh) under a light regime of 12 hours light/12 hours darkness in a climate cabinet and the activity of a compound was assessed as percent disease control compared to untreated when an appropriate level of disease damage appears in untreated check leaf segments (7 to 9 days after application).
The following compounds at 200 ppm in the applied formulation give at least 80% disease control in this test when compared to untreated control leaf disks under the same conditions, which show extensive disease development.

For assay [2], the system named is Glomerella lagenarium (Colletotrichum lagenarium). Nature of the assay: Fungicidal activity against Glomerella lagenarium (Colletotrichum lagenarium) liquid culture / cucumber / preventative (anthracnose). The class given is cell-based. Particulars: Colletotrichum orbiculare; 20 ppm in the applied formulation; liquid culture (PDB), growth inhibition measured photometrically after 3 to 4 days; compared to untreated control; read-out: disease control. In a few lines: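 Percent activity against the untreated check was derived from photometric growth measurements made 2 to 7 days after conidia in potato dextrose broth were combined with compound at 20 ppm. Cultures were kept dark at 24 °C and 96% humidity.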

As to `O=C(c1ccc(Cl)cc1)N(Cc1ccc(-c2noc(C(F)(F)F)n2)cc1)C1CC1` [Compound 1.142, 4-chloro-N-cyclopropyl-N-[[4-[5-(trifluoromethyl)-1,2,4-oxadiazol-3-yl]phenyl]methyl]-benzamide], the pest or weed control at 200 ppm in assay [1] is at least 80%. Further, the inhibition of growth at 20 ppm in assay [2] was at least 80%.

In the case of `CC(=O)NCC(=O)N(Cc1ccc(-c2noc(C(F)(F)F)n2)cc1)OCC=C(Cl)Cl` [Compound 1.537, 2-acetamido-N-(3,3-dichloroallyloxy)-N-[[4-[5-(trifluoromethyl)-1,2,4-oxadiazol-3-yl]phenyl]methyl]-acetamide], the pest or weed control at 200 ppm in assay [1] was at least 80%. In addition, the inhibition of growth at 20 ppm in assay [2] was at least 80%.

For `CC=CC(=O)N(Cc1ccc(-c2noc(C(F)(F)F)n2)cc1)CC1CCCO1` (centres unmarked) [Compound 1.413, N-(tetrahydrofuran-2-ylmethyl)-N-[[4-[5-(trifluoromethyl)-1,2,4-oxadiazol-3-yl]phenyl]methyl]but-2-enamide], in assay [1], the pest or weed control at 200 ppm is at least 80%. Further, the inhibition of growth at 20 ppm in assay [2] was at least 80%.

Take `CCCON(Cc1ccc(-c2noc(C(F)(F)F)n2)cc1)C(=O)COC` [Compound 1.287, 2-methoxy-N-propoxy-N-[[4-[5-(trifluoromethyl)-1,2,4-oxadiazol-3-yl]phenyl]methyl]-acetamide]: in assay [1], the pest or weed control at 200 ppm was at least 80%. The inhibition of growth at 20 ppm in assay [2] is at least 80%.

`CON(C(=O)C=C(F)CCl)C(C)c1ccc(-c2noc(C(F)(F)F)n2)cc1` (centres unmarked) [Compound 1.252, 4-chloro-3-fluoro-N-methoxy-N-[1-[4-[5-(trifluoromethyl)-1,2,4-oxadiazol-3-yl]phenyl]ethyl]but-2-enamide]: the pest or weed control at 200 ppm in assay [1] was at least 80%. Also, the inhibition of growth at 20 ppm in assay [2] is at least 80%.

With `CCCON(Cc1ccc(-c2noc(C(F)(F)F)n2)cc1)C(C)=O` [Compound 1.320, N-propoxy-N-[[4-[5-(trifluoromethyl)-1,2,4-oxadiazol-3-yl]phenyl]methyl]-acetamide], the pest or weed control at 200 ppm in assay [1] was at least 80%. Moreover, the inhibition of growth at 20 ppm in assay [2] was at least 80%.

For the compound `CON(Cc1c(F)cc(-c2noc(C(F)(F)F)n2)cc1F)C(=O)c1ccccc1Cl` [Compound 1.598, 2-chloro-N-[[2,6-difluoro-4-[5-(trifluoromethyl)-1,2,4-oxadiazol-3-yl]phenyl]methyl]-N-methoxy-benzamide], in assay [1], the pest or weed control at 200 ppm is at least 80%. In addition, in assay [2], the inhibition of growth at 20 ppm was at least 80%.

For `CCCON(Cc1ccc(-c2noc(C(F)(F)F)n2)cc1)C(=O)COC(C)=O` [Compound 1.306, [2-oxo-2-[propoxy-[[4-[5-(trifluoromethyl)-1,2,4-oxadiazol-3-yl]phenyl]methyl]-amino]ethyl] acetate], the pest or weed control at 200 ppm in assay [1] was at least 80%. In assay [2], the inhibition of growth at 20 ppm was at least 80%.

For the compound `O=C(CCl)N(Cc1ccc(-c2noc(C(F)(F)F)n2)cc1)Cc1ccco1` [Compound 1.462, 2-chloro-N-(2-furylmethyl)-N-[[4-[5-(trifluoromethyl)-1,2,4-oxadiazol-3-yl]phenyl]methyl]-acetamide], the pest or weed control at 200 ppm in assay [1] is at least 80%. In addition, the inhibition of growth at 20 ppm in assay [2] was at least 80%.

Turning to `CCC(C)N(Cc1ccc(-c2noc(C(F)(F)F)n2)cc1)C(=O)C1CCCC1` (centres unmarked) [Compound 1.376, N-sec-butyl-N-[[4-[5-(trifluoromethyl)-1,2,4-oxadiazol-3-yl]phenyl]methyl]-cyclopentane-carboxamide], in assay [1], the pest or weed control at 200 ppm is at least 80%. Moreover, the inhibition of growth at 20 ppm in assay [2] is at least 80%.

Regarding `CON(Cc1ccc(-c2noc(C(F)(F)F)n2)cc1)C(=O)c1cccc2nnsc12` [Compound 1.67, N-methoxy-N-[[4-[5-(trifluoromethyl)-1,2,4-oxadiazol-3-yl]phenyl]methyl]-1,2,3-benzothiadiazole-7-carboxamide], the pest or weed control at 200 ppm in assay [1] was at least 80%. Moreover, the inhibition of growth at 20 ppm in assay [2] is at least 80%.

`CC(=O)NCC(=O)N(Cc1ccc(-c2noc(C(F)(F)F)n2)cc1)Cc1ccco1` [Compound 1.461, 2-acetamido-N-(2-furylmethyl)-N-[[4-[5-(trifluoromethyl)-1,2,4-oxadiazol-3-yl]phenyl]methyl]-acetamide]: in assay [1], the pest or weed control at 200 ppm was at least 80%. Further, the inhibition of growth at 20 ppm in assay [2] is at least 80%.

In the case of `CC=CC(=O)N(OC)C(C)c1ccc(-c2noc(C(F)(F)F)n2)cc1` (centres unmarked) [Compound 1.250, N-methoxy-N-[1-[4-[5-(trifluoromethyl)-1,2,4-oxadiazol-3-yl]phenyl]ethyl]but-2-enamide], in assay [1], the pest or weed control at 200 ppm was at least 80%. Further, in assay [2], the inhibition of growth at 20 ppm is at least 80%.

Consider `CON(Cc1ccc(-c2noc(C(F)(F)F)n2)cc1F)C(=O)c1ccccc1Cl` [Compound 1.565, 2-chloro-N-[[2-fluoro-4-[5-(trifluoromethyl)-1,2,4-oxadiazol-3-yl]phenyl]methyl]-N-methoxy-benzamide], for which, in assay [1], the pest or weed control at 200 ppm was at least 80%. In assay [2], the inhibition of growth at 20 ppm was at least 80%.

As for `C#CC(=O)N(Cc1ccc(-c2noc(C(F)(F)F)n2)cc1)OCCC` [Compound 1.305, N-propoxy-N-[[4-[5-(trifiuoromethyl)-1,2,4-oxadiazol-3-yl]phenyl]methyl]-prop-2-ynamide], the pest or weed control at 200 ppm in assay [1] was at least 80%. Further, the inhibition of growth at 20 ppm in assay [2] was at least 80%.

As to `CCCON(Cc1ccc(-c2noc(C(F)(F)F)n2)cc1)C(=O)C1(C#N)CC1` [Compound 1.313, 1-cyano-N-propoxy-N-[[4-[5-(trifluoromethyl)-1,2,4-oxadiazol-3-yl]phenyl]methyl]-cyclopropane-carboxamide], the pest or weed control at 200 ppm in assay [1] was at least 80%. In addition, the inhibition of growth at 20 ppm in assay [2] is at least 80%.

Consider `O=C(Cc1cccnc1)N(Cc1ccc(-c2noc(C(F)(F)F)n2)cc1)CC1CC1` [Compound 1.214, N-(cyclopropylmethyl)-2-(3-pyridyl)-N-[[4-[5-(trifluoromethyl)-1,2,4-oxadiazol-3-yl]phenyl]methyl]-acetamide], for which, in assay [1], the pest or weed control at 200 ppm is at least 80%. The inhibition of growth at 20 ppm in assay [2] was at least 80%.

As to `C=CC(=O)N(Cc1ccc(-c2noc(C(F)(F)F)n2)cc1)CC1CCCO1` (centres unmarked) [Compound 1.430, N-(tetrahydrofuran-2-ylmethyl)-N-[[4-[5-(trifluoromethyl)-1,2,4-oxadiazol-3-yl]phenyl]methyl]-prop-2-enamide], the pest or weed control at 200 ppm in assay [1] was at least 80%. Also, the inhibition of growth at 20 ppm in assay [2] was at least 80%.

As for `CC(C)(CCl)C(=O)N(Cc1ccc(-c2noc(C(F)(F)F)n2)cc1)CC1CC1` [Compound 1.219, 3-chloro-N-(cyclopropylmethyl)-2,2-dimethyl-N-[[4-[5-(trifluoromethyl)-1,2,4-oxadiazol-3-yl]phenyl]methyl]-propanamide], in assay [1], the pest or weed control at 200 ppm is at least 80%. Besides, the inhibition of growth at 20 ppm in assay [2] was at least 80%.

Turning to `O=CNC1(C(=O)N(Cc2ccc(-c3noc(C(F)(F)F)n3)cc2)CC2CCCO2)CC1` (centres unmarked) [Compound 1.441, 1-formamido-N-(tetrahydrofuran-2-ylmethyl)-N-[[4-[5-(trifluoromethyl)-1,2,4-oxadiazol-3-yl]phenyl]methyl]-cyclopropane-carboxamide], the pest or weed control at 200 ppm in assay [1] is at least 80%.

`CON(Cc1ccc(-c2noc(C(F)(F)F)n2)cc1)C(=O)C1C(C=C(Cl)Cl)C1(C)C` (centres unmarked) [Compound 1.62, 3-(2,2-dichlorovinyl)-N-methoxy-2,2-dimethyl-N-[[4-[5-(trifluoromethyl)-1,2,4-oxadiazol-3-yl]phenyl]methyl]-cyclopropane-carboxamide]: the pest or weed control at 200 ppm in assay [1] is at least 80%.

In the case of `C#CCOC(=O)NC(C(=O)N(CC#C)Cc1ccc(-c2noc(C(F)(F)F)n2)cc1)C(C)C` (centres unmarked) [Compound 1.198, prop-2-ynyl N-[2-methyl-1-[prop-2-ynyl-[[4-[5-(trifluoromethyl)-1,2,4-oxadiazol-3-yl]phenyl]methyl]-carbamoyl]propyl]-carbamate], the pest or weed control at 200 ppm in assay [1] is at least 80%.

`CC(=O)NCC(=O)N(Cc1ccc(-c2noc(C(F)(F)F)n2)cc1)OCc1ccc(Cl)cc1` [Compound 1.552, 2-ace tamido-N-[(4-chlorophenyl)-methoxy]-N-[[4-[5-(trifluoromethyl)-1,2,4-oxadiazol-3-yl]phenyl]methyl]-acetamide]: in assay [1], the pest or weed control at 200 ppm is at least 80%.

Turning to `C#CCN(Cc1ccc(-c2noc(C(F)(F)F)n2)cc1)C(=O)Cc1ccccc1` [Compound 1.186, 2-phenyl-N-prop-2-ynyl-N-[[4-[5-(trifluoromethyl)-1,2,4-oxadiazol-3-yl]phenyl]methyl]-acetamide], the pest or weed control at 200 ppm in assay [1] was at least 80%.

Consider `O=C(Cc1ccc(Cl)cc1)N(Cc1ccc(-c2noc(C(F)(F)F)n2)cc1)CC1CC1` [Compound 1.234, 2-(4-chlorophenyl)-N-(cyclopropylmethyl)-N-[[4-[5-(trifluoromethyl)-1,2,4-oxadiazol-3-yl]phenyl]methyl]-acetamide], for which, in assay [1], the pest or weed control at 200 ppm was at least 80%.

(Values after patent publication US11180462B2, “Microbiocidal oxadiazole derivatives” (SYNGENTA PARTICIPATIONS AG, priority 2015, dated 2021).)
